Data on 2 molecules can be found in patent publication US20230364032A1, “USE OF 2-HOBA TO TREAT ATHEROSCLEROSIS” (Vanderbilt University, priority 2020, published 2023).

The conditions of assay [1]: previous in vitro studies; cited from earlier work.
The subject of assay [2] is IsoLG. Kind of assay: IsoLG-HOBA adducts/metabolites in liver and heart (LC/MS). The format is in vivo, mouse. The note with it: for IsoLG-HOBA adducts in hearts and livers: Ldlr−/− mice after 16 weeks on a western diet. As for the experimental part:
To generate an internal standard for quantitation, 10 molar equivalents of the heavy isotope labeled 2-HOBA, [^2H4]2-HOBA, was reacted with synthetic IsoLG^69 overnight in 1 mM triethylammonium acetate buffer to form IsoLG-2-HOBA adducts, and the adducts separated from unreacted [^2H4]2-HOBA and IsoLG by solid phase extraction (Oasis HLB). The isolated reaction products of IsoLG-2-HOBA were scanned by mass spectrometer (Waters Xevo-TQ-Smicro triple quadrupole MS) operating in limited mass scanning mode to identify major products. Additionally, precursor scanning with the product ion set at m/z 111.1 was used to confirm that the detected products were [^2H4]2-HOBA adducts. […] Similar species were seen when IsoLG was reacted with non-labeled 2-HOBA and precursor scanning using product ion m/z 107.1 To identify potential 2-HOBA adducts in tissue of treated animals, the present inventors first generated a list of 18 probable IsoLG-HOBA species [pyrrole, lactam, hydroxylactam based on the in vitro reactions of IsoLG and 2-HOBA and then the anhydro-, dinor-, dinor/anhydro-, tetranor-, and keto-(from oxidation of hydroxyl group) metabolites of each of these three adducts based on previous metabolism studies with prostaglandins and isoprostanes]. The present inventors then analyzed liver homogenate from a 2-HOBA treated mouse using LC/MS with the mass spectrometer operating in positive ion precursor scanning mode and the product ion set to m/z 107.1 and collision energy at 20 eV and looked for the presence of any of these precursor ions. […] M2 m/z 440.3, which mass is consistent with the pyrrole adduct, and M3 m/z 454.3 which mass is consistent with the anhydro-hydroxylactam adduct or the keto-lactam adduct. When then sought to quantify the amount of the putative IsoLG-HOBA adducts in heart and liver samples as there was not sufficient aorta sample remaining from other analysis available to do this analysis.
For these experiments, liver or heart samples from Ldlr^−/− mice treated with 2-HOBA or 4-HOBA were homogenized in 0.5 M Tris buffer solution pH 7.5 containing mixture of antioxidants (pyridoxamine, indomethacin, BHT, TCEP). Total amount of protein in homogenate was determined for normalization. 1 pmol IsoLG-[^2H4]2-HOBA was then added to each homogenate sample as internal standard, the HOBA adducts extracted with ethyl acetate, dried, dissolved in solvent 1 (water with 0.1% acetic acid) and analyzed by LC/MS using Waters Xevo-TQ-Smicro triple quadrupole mass spectrometer operating in positive ion multiple reaction monitoring (MRM) mode, monitoring the following transitions: m/z 438.3→107.1@20 eV for M1; m/z 440→107.1@20 eV for M2; m/z 454→107.1@20 eV for M3; and m/z 476.3→111.1@20 eV for IsoLG-[^2H4]2-HOBA hydroxylactam. Desolvati on temperature: 500° C.; source temperature: 150° C.; capillary voltage: 5 kV, cone voltage: 5 V; cone gas flow 1 L/h; desolvation gas flow 1000 L/h. HPLC condition were as follows: Solvent 1: water with 0.1% acetic acid; Solvent 2, methanol with 0.1% acetic acid; column: Phenomenex Kinetex C8 50×2.1 mm 2.6 u 100 Å, flow rate: 0.4 mL/min; gradient: starting condition 10% B with gradient ramp to 100% B over 3.5 min, hold for 0.5 min, and return to starting conditions over 0.5 min. Abundance for each metabolite was calculated based on the ratio of peak height versus that of internal standard.

The test system of assay [3] is hypercholesterolemic Ldlr−/− mice. The assay is described as follows: Atherosclerosis in western-diet-fed Ldlr−/− mice (Oil-Red-O proximal aorta sections and en face aorta). The format is in vivo, mouse. The note with it: western diet 16 weeks; for effect on atherosclerosis: hypercholesterolemic Ldlr−/− mice. As to the method:
Ldlr^−/− and WT on C57BL/6 background mice were obtained from the Jackson Laboratory. Animal protocols were performed according to the regulations of Vanderbilt University's Institutional Animal Care and Usage Committee. Mice were maintained on chow or a Western-type diet containing 21% milk fat and 0.15% cholesterol (Teklad). Eight week old, female Ldlr^−/− mice on a chow diet were pretreated with vehicle alone (Water) or containing either 1 g/L of 4-HOBA or 1 g/L of 2-HOBA. 4-HOBA (as hydrochloride salt) was synthesized as previously described^21. 2-HOBA (as the acetate salt, CAS 1206675-01-5) was manufactured by TSI Co., Ltd. (Missoula, MT) and obtained from Metabolic Technologies, Inc., Ames, IA^24. A commercial production lot was used (Lot 16120312), and the purity of the commercial lot was verified to be >99% via HPLC and NMR spectroscopy^24. After two weeks, the mice continued to receive these treatments but were switched to a western diet for 16 weeks to induce hypercholesterolemia and atherosclerosis. Similarly, 12 week-old male Ldlr^−/− mice were pretreated with vehicle alone (water) or containing 1 g/L of 2-HOBA for two weeks and were then switched to a western diet for 16 weeks to induce hypercholesterolemia and atherosclerosis, while continuing the treatment with 2-HOBA or water alone^58, 59, 60 Based on the average weight and daily consumption of water per mouse the estimated daily dosage with 1 g/L of 2-HOBA is 200 mg/Kg. […] Eight week old, male Ldlr^−/− mice were fed a western diet for 16 weeks and were continuously treated with water containing either 2-HOBA or 4-HOBA. Urine samples were collected using metabolic cages (2 mice in one cage) during 18 h after oral gavage with either 2-HOBA or 4-HOBA (5 mg each mouse).
The extent of atherosclerosis was examined both Oil-Red-O-stained cross-sections of the proximal aorta and by en face analysis^30. Briefly, cryosections of 10-micron thickness were cut from the region of the proximal aorta starting from the end of the aortic sinus and for 300 μm distally, according to the method of Paigen et al.^62. The Oil red-O staining of 15 serial sections from the root to ascending aortic region were used to quantify the Oil red-O-positive staining area per mouse. The mean from the 15 serial sections was applied for the aortic root atherosclerotic lesion size per mouse using the KS300 imaging system (Kontron Elektronik GmbH) as described^63, 64, 65. All other stains were done using sections that were 40 to 60 μm distal of the aortic sinus. For each mouse, 4 sections were stained and quantitation was done on the entire cross section of all 4 sections. For immunofluorescence staining, 5 μm cross-sections of the proximal aorta were fixed in cold acetone (Sigma), blocked in Background Buster (Innovex), incubated with indicated primary antibodies (MDA and CD68) at 4° C. for overnight. After incubation with fluorescent labeled secondary antibodies at 37 C for 1 hour, the nucleus was counterstained with Hoechst. Images were captured with a fluorescence microscope (Olympus IX81) and SlideBook 6 (Intelligent-Image) software and quantitated using ImageJ software (NIH)^66.

The mark [4] stands for this setting: Ldlr−/− mice, Western diet 16 weeks, continuously treated, Mean ± SEM.
[5] abbreviates: male Ldlr−/− mice, 1 g/L, compared to water.

Structures are written as SMILES. “And” between values parts separate entries of the source, which are not always exact repeats. Identical values can stand only once. “Also recorded” adds a separate entry of the source.

For `NCc1ccccc1O` [2-HOBA, 2-hydroxybenzylamine], the “reactivity with lipid dicarbonyls / dicarbonyl scavenging” value in assay [1] is on record as “rapidly reacts”. Besides, the “IsoLG-HOBA adducts in hearts and livers” value in assay [2] was “present”. In assay [2] (setting [4]), the “IsoLG-HOBA-M1 level, heart” value is reported as 0.74 ± 0.21 nmol/kg; the “IsoLG-HOBA-M1 level, liver” value is listed as 0.88 ± 0.14 nmol/kg; the “IsoLG-HOBA-M2 level, heart” value was 0.57 ± 0.35 nmol/kg; the “IsoLG-HOBA-M2 level, liver” value came out at 0.82 ± 0.12 nmol/kg. Further, in assay [2] (setting [4]), the “IsoLG-HOBA-M3 level, heart” value came to 0.24 ± 0.17 nmol/kg and the “IsoLG-HOBA-M3 level, liver” value came to 4.17 ± 1.85 nmol/kg. Moreover, the “reduction of extent of proximal aortic atherosclerosis” value in assay [3] (female Ldlr−/− mice, 1 g/L in water, compared to 4-HOBA) was 31.5%. In addition, the “reduction of extent of proximal aortic atherosclerosis” value in assay [3] (female Ldlr−/− mice, 1 g/L in water, compared to vehicle) is 31% and 31.1%. In addition, the “reduction of extent of aortic atherosclerosis, en face analysis” value in assay [3] (female Ldlr−/− mice, 1 g/L, compared to 4-HOBA) was determined as 59.1%. Further, in assay [3] (female Ldlr−/− mice, 1 g/L, compared to vehicle), the “reduction of extent of aortic atherosclerosis, en face analysis” value is 60% and 60.3%. The “effect on atherosclerosis” value in assay [3] (1 g/L) is “attenuates atherosclerosis; also recorded: reduces atherosclerotic lesions”. For the same molecule, in assay [3] (setting [5]), the “reduction of extent of proximal aortic atherosclerosis” value is on record as 37% and the “reduction of extent of whole aorta atherosclerosis” value amounted to 45%.

On to `NCc1ccc(O)cc1` [4-HOBA, 4-hydroxybenzylamine, reference compound], for which the “reactivity with lipid dicarbonyls / dicarbonyl scavenging” value in assay [1] was “poor reactivity; also recorded: ineffective”. For the same molecule, the “IsoLG-HOBA adducts in hearts and livers” value in assay [2] is “nondetectable”. The “effect on atherosclerosis” value in assay [3] (1 g/L) was “not atheroprotective”.
